Drawing on PubChem BioAssay (NCI), this text covers TGI and GI50 for 30 molecules.

The structures appear in SMILES notation.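 Briefly, cells in 96-well plates were exposed to five compound concentrations for 48 h, and endpoints were estimated by linear interpolation. GI50 is the concentration that inhibits growth by half. The concentration for full growth arrest is given as TGI.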

Common to all, as to assay: NCI-60 cell line screen, 48 h
For assay [1], the system named is NCI-H522 lung.
For assay [2], the system named is HT29 colon.
Assay [3] relates to A498 renal.
Assay [4] deals with KM12 colon.
For assay [5], the system named is M14 melanoma.
Assay [6] relates to SNB-75 CNS.
The test system of assay [7] is SW-620 colon.
In assay [8] the test system is UACC-62 melanoma.
In assay [9] the test system is RXF 393 renal.

With `S=c1o[nH]c(-c2ccccc2)c1C=Nc1ccccc1`, the TGI in assay [1], in assay [2], in [3], in assay [4], in assay [5] and in assay [6] was over 100 µM in each case. Also, the TGI in [7], in assay [8] and in assay [9] was over 100 µM in each case.
Take `COC(=O)CCC(=O)N1C/C(=C\c2ccccc2)C(=O)/C(=C/c2ccccc2)C1`: the TGI in assay [2] was found to be 4.09 µM; in assay [3] it was 4.45 µM; in assay [4], 2.84 µM; in [5] it was 3.93 µM; in assay [6], 5.27 µM; in assay [7], 0.389 µM. Further, the results for the TGI in [8] and in assay [9] were 3.61 µM and 3.74 µM, respectively.
Regarding `CC(C)(C)C1CCC2c3c([nH]c4ncccc34)C3C(=O)N(c4ccccc4)C(=O)C3C2C1` (stereo not drawn), the TGI in assay [1], in assay [2], in assay [4], in assay [5], in assay [6] and in [7] was over 100 µM in each case. Further, the TGI in assay [8] and in assay [9] was over 100 µM in each case.
With `Cc1ccc(S(=O)(=O)NC(=O)NCCc2ccccc2)cc1`, the TGI in assay [1], in assay [3], in assay [4], in assay [5], in [6] and in assay [7] was over 100 µM each time. Besides, the TGI in assay [8] and in [9] was over 100 µM each time.
On to `Cc1cccc(C)c1NC(=O)CCc1nnc2s/c(=C\c3ccc(N(C)C)cc3)c(=O)n12`, for which the TGI in assay [1], in [2], in [3], in assay [4], in assay [5] and in assay [6] was over 100 µM throughout. Also, the TGI in assay [7], in assay [8] and in assay [9] was over 100 µM in each case.
Regarding `N#Cc1c(-c2ccccc2)cc(-c2ccc(N)cc2)[nH]c1=O`, the TGI in assay [1], in [2], in assay [3], in assay [4], in [5] and in assay [6] was over 100 µM throughout. In addition, the TGI in assay [7], in [8] and in [9] was over 100 µM in each case.
As to `CCOC(=O)C1C=C2O[C@@H]3OC4(CCCCC4)O[C@@H]3C2C2C(=O)CCC(=O)[C@@]12C(=O)OC` (stereo partly drawn), the TGI in [1], in assay [3], in assay [4], in assay [5], in assay [6] and in assay [7] was over 100 µM throughout. The same molecule came in with a TGI in [8] of over 100 µM.
On to `O=[P+](O)c1ccccn1`, for which the TGI in assay [1], in assay [2], in assay [3], in assay [4], in assay [5] and in assay [6] was over 100 µM throughout. Besides, the TGI in assay [7], in [8] and in assay [9] was over 100 µM each time.
Regarding `CCC/C=C\C=C\C1(NS(=O)(=O)c2ccc(C)cc2)CCC(C(C)(C)C)CC1` (stereo not drawn), the TGI in assay [1] came out at 12.1 µM; in assay [2], 30.2 µM; in assay [3], 46.4 µM; in [4], 31.9 µM; in [5] it was 37.1 µM; in [6], 72.1 µM. The figures for the TGI in assay [7], in assay [8] and in assay [9] were 35.7 µM, 88.7 µM and 32.3 µM, respectively.
Take `Nc1ccc(-c2cc(C(=O)Nc3nccs3)[nH]c(=S)n2)cc1`: the TGI in [1], in assay [2], in [3], in [4], in assay [5] and in assay [6] was over 100 µM throughout. For the same molecule, the TGI in [7], in [8] and in assay [9] was over 100 µM throughout.
For the molecule `CCCCC(C)/C=C/C(=O)C1=C(O)/C(=C/C(=O)O)OC1=O` (stereo not drawn), the TGI in assay [2], in assay [3], in [4], in [5], in [6] and in assay [7] was over 100 µM throughout. Besides, the TGI in assay [8] was over 100 µM.
With `CC(C)(C)OP(=O)(OC(C)(C)C)C(O)c1ccc(/C=C(\C#N)C(N)=O)cc1` (stereo not drawn), the TGI in [1], in assay [2], in assay [3], in [4], in assay [5] and in assay [6] was over 100 µM each time. For the same molecule, the TGI in [7], in assay [8] and in assay [9] was over 100 µM each time.
Regarding `Cn1c(=O)nc2n(-c3ccc(Cl)cc3)c(-c3ccccc3)c(-c3ccccc3)nc-2c1=O`, the TGI in [1] is over 100 µM; in [2], over 100 µM; in [3], over 100 µM; in [4], over 100 µM; in assay [5] it was 45.5 µM; in assay [6] it was over 100 µM. Also, the TGI is over 100 µM in assay [7] and 32.5 µM in [8].
Consider `O=C1/C(=C/c2ccc3c(c2)OCCO3)CCC/C1=C\c1ccc2c(c1)OCCO2`, for which the TGI in assay [1] amounted to 92.3 µM; in assay [2], 52 µM; in assay [3] it was 62.1 µM; in assay [4] it was 62.1 µM; in [5], 41.3 µM; in assay [6], 66.9 µM. Further, the values for the TGI in assay [7], in assay [8] and in [9] were over 100 µM, 61.3 µM and 53.5 µM, respectively.
Consider `Cc1cccc(C)c1NC(=O)CCC/C(CC(=O)c1ccc(F)cc1)=N\NC(=O)C(=O)NN`, for which the TGI in assay [2], in assay [3], in assay [4], in assay [5], in assay [6] and in assay [7] was over 100 µM in each case. For the same molecule, the TGI in assay [8] and in assay [9] was over 100 µM each time.
For the molecule `O=C1C(=C2CCCC2)CCC1CN1CCCCC1` (stereo not drawn), the TGI in assay [1] amounted to 3.45 µM; in assay [2] it was 42.1 µM; in assay [3] it was 35.7 µM; in [4], 39.7 µM; in assay [5], 29.6 µM; in assay [6], 15.5 µM. The figures for the TGI in assay [7], in [8] and in [9] were 32.1 µM, 34 µM and 30 µM, respectively.
Regarding `CC1(C)CCCC2(C)C3C(O)CC2(C)C(O)C31` (stereo not drawn), the TGI in assay [1], in [2], in assay [3], in assay [4], in assay [5] and in assay [6] was over 100 µM in each case. The TGI in [7], in [8] and in assay [9] was over 100 µM each time.
In the case of `O=c1c2ccccc2[nH]c2c(O)ccc(O)c12`, the TGI in assay [1] is 29 µM; in [2], over 84.9 µM; in assay [3] it was 96 µM; in [4] it was over 100 µM; in assay [5], 30.3 µM; in [7], 36.1 µM. For the same molecule, the values for the TGI in assay [8] and in assay [9] were 33.5 µM and 25.8 µM, respectively.
As for `O=c1c2cc(Br)cc(Br)c2nc(CCCl)n1-c1ccc(O)c([N+](=O)[O-])c1`, the TGI in [1] worked out at 23.5 µM; in [2], 41.1 µM; in assay [3], 52 µM; in assay [4], 33.7 µM; in [5], 31.9 µM; in assay [6] it was 39.2 µM. Further, the values for the TGI in assay [7] and in assay [8] were 36.2 µM and 47.3 µM, respectively.
For the molecule `C1OC1CN1CCN(CC2CO2)CC1` (stereo not drawn), the TGI in [1], in [2], in assay [3], in [4], in assay [5] and in assay [6] was over 100 µM throughout. The TGI was over 100 µM in assay [7], over 68.5 µM in assay [8] and over 100 µM in assay [9].
Consider `CNC(=O)c1cc(Oc2cccc3nc(NC(=O)Nc4cc(C(F)(F)F)cc(C(F)(F)F)c4)ccc23)ccn1`, for which the GI50 in assay [1] is 6.65 µM; in assay [2], 3.51 µM; in assay [3], 1990 nM; in assay [4], 15.2 µM; in assay [5], 10.2 µM; in assay [6], 2380 nM. Moreover, the figures for the GI50 in assay [7], in assay [8] and in assay [9] were 16.9 µM, 3.56 µM and 3.03 µM, respectively. For the same molecule, the TGI is 35.4 µM in [1]; over 100 µM in [2]; 5.02 µM in assay [3]; over 100 µM in [4]; 62.8 µM in assay [5]; 14.9 µM in [6]. Further, the TGI in assay [7] is over 100 µM; in [8], 22.5 µM; in assay [9], 9.48 µM.
`CN(C)CCC(/C=C/c1ccccc1)=N\Nc1ccc(Cl)c(Cl)c1`: the TGI in [1] came out at 4.41 µM; in assay [2], 5.01 µM; in [3], 13.8 µM; in assay [4] it was 4.41 µM; in assay [5] it was 7.22 µM; in [6], 5.9 µM. The TGI in assay [7] was 13.3 µM; in [8], 7.25 µM; in assay [9], 9.05 µM.
In the case of `CCOC(=O)C(=O)Nc1cc(Cl)c(Cl)cc1Cl`, the TGI in assay [1], in assay [2], in assay [4], in [5], in assay [6] and in assay [7] was over 100 µM each time. Also, the TGI in assay [8] and in [9] was over 100 µM in each case.
For `C/C(=N\NC(=O)C[N+](C)(C)C)c1sc(-c2cccnc2)nc1C`, the TGI in assay [1], in assay [2], in assay [4], in assay [5], in assay [6] and in [7] was over 100 µM each time. Moreover, the TGI in [8] and in [9] was over 100 µM in each case.
Regarding `CC1=CC(C)(c2c[nH]c3ccccc23)CC(C)(C)c2c1[nH]c1ccccc21` (stereo not drawn), the TGI is 28.6 µM in [2]; 37.8 µM in [3]; over 100 µM in assay [4]; 46.9 µM in assay [5]; 67.4 µM in assay [6]; 32.1 µM in [7]. The TGI in assay [8] was found to be 36.6 µM; in assay [9], 26.6 µM.
As to `CCc1cccc(C(C)C)c1NC(=O)CCl`, the TGI in assay [1], in [2], in assay [4], in [5], in assay [6] and in [7] was over 100 µM in each case. This molecule gave a TGI in [8] of over 100 µM.
Consider `Cc1coc2c1C(=O)C(=O)c1ccccc1-2`, for which the TGI in [2] was found to be 3.53 µM; in [3] it was 3.25 µM; in assay [4], 3.49 µM; in [5] it was 2.63 µM; in assay [6] it was 3.15 µM; in assay [7] it was 2.92 µM. Moreover, the TGI in assay [8] worked out at 3.25 µM; in assay [9], 3.12 µM.
Regarding `O=C1N2Cc3c4ccc5c3CN3C(=O)N6Cc7c(ccc(c7CN1C6(c1ccccc1)C23c1ccccc1)OCCOCCOc1cc(Br)c(Br)cc1OCCOCCO4)OCCOCCOc1cc(Br)c(Br)cc1OCCOCCO5` (stereo not drawn), the TGI was over 100 µM in assay [1]; over 100 µM in assay [2]; over 100 µM in assay [4]; over 100 µM in assay [5]; over 100 µM in [6]; 28.3 µM in assay [7]. For the same molecule, the TGI in [8] and in assay [9] was over 100 µM throughout.
In the case of `C/C(=N\NC(N)=S)c1ccc(C)c(C)c1`, the TGI is 98.9 µM in [2]; over 100 µM in [3]; over 100 µM in [4]; over 100 µM in assay [5]; over 100 µM in assay [6]; over 100 µM in assay [7]. Also, the TGI is over 100 µM in [8] and 86.4 µM in [9].
Take `Cc1ccc(S(=O)(=O)N/N=C(\c2nc3ccc([N+](=O)[O-])cc3[nH]c2=O)C(O)c2ccc([N+](=O)[O-])cc2)cc1` (stereo not drawn): the TGI in assay [1], in assay [3], in [5], in [6], in [7] and in [8] was over 100 µM each time. Besides, in assay [9], the TGI was over 100 µM.
